Assay results taken from patent publication US8110543B2, “Anti-invasive and anti-angiogenic compositions” (Angstrom Pharmaceuticals, Inc., priority 1997, dated 2012).

Tests used:
3LL = 3LL metastasis model, related peptides; set-up: species or system mice; settings: mouse, in vivo
Source text: This model has been utilized by a number of investigators. See, for example, Gorelik, E. et al., J. Nat'l. Canc. Inst. 65:1257-1264 (1980); Gorelik, E. et al., Rec. Results Canc Res. 75:20-28 (1980); Isakov, N. et al., Invasion Metas. 2:12-32 (1982); Talmadge J. E. et al., J. Nat'l. Canc. Inst. 69:975-980 (1982); Hilgard, P. et al, Br. J. Cancer 35:78-86 (1977)). Test mice are male C57BL/6 mice, 2-3 months old. Following sc, im, or intra-footpad implantation, this tumor produces metastases, preferentially in the lungs. With some lines of the tumor, the primary tumor exerts anti-metastatic effects and must first be excised before study of the metastatic phase (see also U.S. Pat. No. 5,639,725).
Single-cell suspensions are prepared from solid tumors by treating minced tumor tissue with a solution of 0.3% trypsin. Cells are washed 3 times with PBS (pH 7.4) and suspended in PBS. Viability of the 3LL cells prepared in this way is generally about 95-99% (by trypan blue dye exclusion). Viable tumor cells (3×10^4-5×10^6) suspended in 0.05 ml PBS are injected subcutaneously, either in the dorsal region or into one hind foot pad of C57BL/6 mice. Visible tumors appear after 3-4 days after dorsal sc injection of 10^6 cells. The day of tumor appearance and the diameters of established tumors are measured by caliper every two days.
The treatment is given as one or two doses of peptide or derivative, per week. In another embodiment, the peptide is delivered by osmotic minipump.
Lungs are removed and weighed. Lungs are fixed in Bouin's solution and the number of visible metastases is recorded. The diameters of the metastases are also measured using a binocular stereoscope equipped with a micrometer-containing ocular under 8× magnification. On the basis of the recorded diameters, it is possible to calculate the volume of each metastasis. To determine the total volume of metastases per lung, the mean number of visible metastases is multiplied by the mean volume of metastases. To further determine metastatic growth, it is possible to measure incorporation of ^125IdUrd into lung cells (Thakur, M. L. et al., J. Lab. Clin. Med. 89:217-228 (1977). Ten days following tumor amputation, 25 μg of fluorodeoxyuridine is inoculated into the peritoneums of tumor-bearing (and, if used, tumor-resected mice). After 30 min, mice are given 1 μCi of ^125IdUrd (iododeoxyuridine). One day later, lungs and spleens are removed and weighed, and a degree of ^125IdUrd incorporation is measured using a gamma counter.
(§1) In addition to Å6, other related peptide compounds described above are tested for efficacy in vivo in the 3LL model (as provided above) as well as the PC-3 model. PC-3 cells transfected with the gene encoding the enzyme chloramphenicol acetyl-transferase (CAT) are inoculated into mice i.v. at doses of 1×10^6 cells per mouse. These mice are implanted with a minipump, as above, which dispenses 100 mg/kg/day of the peptide or vehicle over a period of 14 or 21 days. At termination of treatment, the animals are euthanized and the tumor marker probe is assayed in regional lymph nodes, femurs, lungs, and brain.

3LL cells = experiment: Tumor angiogenesis (microvessel density) in 3LL model; type: in vivo, Mice; settings: 100-250 mg/kg/day; compared to controls
Protocol: Angiogenesis is measured by determining microvessel density using immunostaining for CD31 (also known as platelet-endothelial cell adhesion molecule or PECAM). Results are reported as the average microvessel density of 5 fields each from 5 different sections (Penfold et al., 1996). Typically, the whole tumor is excised, sectioned and the sections examined histologically for microvessel density using appropriate stains or labels for other markers.
Angiogenesis induced by tumor growth and metastasis in vivo is examined in the models systems described above. Mice injected with 3LL cells are treated either with peptide or with vehicle and are sacrificed at various time points. Angiogenesis is assessed by determining microvessel density (MVD) using an antibody specific for microvascular endothelium or other markers of growing blood vessels, such as PECAM (CD31). Such an antibody is employed in conventional immunohistological methods to immunostain tissue sections as described by Penfold et al., supra. A large number of such antibodies is commercially available, for example the JC70 mAb. The MVD are correlated with other measures of tumor behavior including lymph node status and primary tumor size and rate of growth. In humans as reported by Penfold et al., supra, tumor MVD correlates with lymph node metastasis and is independent of tumor size, growth rate or type of histological differentiation.
The compounds are given i.v., i.p., or by osmotic minipump Typical dosages are 100-250 mg/kg/day. At various time points, two animals are sacrificed, and the tumor tissue and surrounding tissue is prepared for histological examination. Results are reported as the average microvessel density of 5 fields each from 5 different sections. The following seven compounds are tested: Ac-[…]-Am (SEQ ID NO:2), Ac-[…]-Am (SEQ ID NO: 6) (disubstitution variant at positions 3 and 4), Ac-[…]-Am (SEQ ID NO: 7) (disubstitution variant at positions 7 and 8), Ac-[…]-Am (SEQ ID NO: 8) (substitution variant at position 1), Ac-PSSPPEE-Am (SEQ ID NO: 4) (deletion variant, position 1 of SEQ ID NO:2 deleted), Ac-KPSSPPE-Am (SEQ ID NO: 5) (deletion variant, position 8 of SEQ ID NO:2 deleted), and Ac-[…]-Am (SEQ ID NO:1).

PC-3 cells = experiment: PC-3 CAT metastasis model; type: in vivo, mice; settings: minipump 100 mg/kg/day, 14 or 21 days
Protocol: The compounds of this invention are also tested for inhibition of late metastasis using an experimental metastasis model (Crowley et al., 1993). Late metastasis involves the steps of attachment and extravasation of tumor cells, local invasion, seeding, proliferation and angiogenesis.
Human prostatic carcinoma cells (PC-3) transfected with a reporter gene, preferably the green fluorescent protein (GFP) gene, but as an alternative with a gene encoding the enzymes chioramphenicol acetyl-transferase (CAT), luciferase or LacZ. This permits utilization of either of these markers (fluorescence detection of GFP or histochemical colorimetric detection of enzymatic activity) for following the fate of these cells. Cells are injected, preferably iv, and metastases identified after about 14 days, particularly in the lungs but also in regional lymph nodes, femurs and brain. This mimics the organ tropism of naturally occurring metastases of prostate cancer. For example, GFP-expressing PC-3 cells (1×10^6 cells per mouse) are injected iv into the tail veins of nude (nu/nu) mice. Animals are also implanted with mini-pumps (sub-dermally on the back) dispensing either the test compound (at least about 100 mg/kg/day) or vehicle. The animals are euthanized after 14 days and their organs prepared for histological examination. Single metastatic cells and foci are visualized and quantitated by fluorescence microscopy or light microscopic histochemistry or by grinding the tissue and quantitative colorimetric assay of the detectable label.
as §1

Mat B-III tumors = experiment: Rat syngeneic Mat B-III breast cancer model; type: in vivo; settings: comparative analysis of related peptides
Protocol: The effects of the compounds are tested on tumor progression in a rat syngeneic model of breast cancer (Xing and Rabbani, 1996). Mat BIII rat breast tumor cells (1×10^6 cells in PBS, 0.1 mL per rat) are inoculated into the mammary fat pads of female Fisher rats. The test compound is dissolved in PBS (200 mM stock), sterile filtered and dispensed in vivo at a dose of up to about 100 mg/kg/day) using a 14-day Alza osmotic mini-pump implanted intraperitoneally at the time of inoculation. Control animals receive vehicle (PBS) alone. Animals are euthanized at day 14 and examined for metastasis in the spleen, lungs, liver, kidney and lymph nodes. In addition, the primary tumors are excised, quantitated, and prepared for immunohistochemistry.
The rat syngeneic breast cancer system (Xing and Rabbani, 1996) employs Mat BIIIrat breast cancer cells. When Mat B-III cells (1×10^6 cells) are inoculated into the mammary fat pad of female Fisher rats, they form large tumors which metastasize to regional lymph nodes (LNs) and other distal sites within 14-20 days.
Å6 was initially delivered prophylactically (infusion starting on the day of tumor inoculation) using an Alzet mini-pump that delivered 75 mg/kg/day. […] Metastasis was quantitated by counting the number of macroscopic foci without regard for their size.
Estrogen receptor-positive Mat B-III tumors were used to test combination treatment with Å6 (75 mg/kg/day) and TAM (3 mg/kg/day). In contrast to previous studies, the Mat B-III tumors (inoculated in the mammary fat pad) were staged to 40-50 mm^3 prior to the initiation of treatment. Treatment was continued for 8 days during which time primary tumor growth was measured using calipers (FIG. 14).

[1] = test system: human prostate cancer line PC-3; experiment: Matrigel invasion assay, PC-3 cells; type: cell-based; settings: 5 μM (FIG. 1, FIG. 2)
Protocol: Several peptides were tested for anti-invasive capacity in a Matrigel® invasion assay system as indicated above (Kleinman et al., supra; Parish et al., supra). Several invasive human tumor lines (PC-3, MDA-MB-231) and non-human tumors (3LL, Mat B-III) were examined. The rat breast cancer line Mat B III and the human prostate cancer line PC-3 were initially used.
Tumor cells (5×10^5/mL, in a volume of 200 μL) in serum-free RPMI 1640 medium were added to a disposable transwell invasion chamber coated with Matrigel® (Becton Dickinson, Lincoln Park, N.J.). The invasion chambers were placed in 24-well tissue culture plates filled with serum-free RPMI-1640 and the plates were placed in an atmosphere of 5% CO2 in humidified air at 37° C. for 48-72 hours. The chambers were then removed, inverted, and the cells which had invaded (and now appeared on the bottom face of the invasion chamber) were fixed and stained using Diff-Quick® (Scientific Products). Cells were counted in 10 different fields on each filter and an average obtained.

Substance | metastasis, 3LL model (3LL) | number of microvessels in the region of the primary tumor (3LL cells) | metastasis, PC-3 model (PC-3 cells) | number of metastases in the spleen, lungs, liver, kidney and lymph nodes (Mat B-III tumors) | size of the primary tumor (Mat B-III tumors) | in vitro invasion of PC-3 cells in a Matrigel system [1]
Ac-KPSSPPDD-Am: disubstitution variant at positions 7 and 8 (SEQ ID NO: 7) (Ac-KPSSPPDD-NH2) | markedly inhibited | significant reduction | markedly inhibited | significant reduction | significant reduction | –
Ac-KPSSPPEELK-Am: capped counterpart of KPSSPPEELK (SEQ ID NO: 1) (Ac-KPSSPPEELK-NH2) [reference compound] | no reduction | no significant effect | no reduction | fail to cause a significant change | fail to cause a significant change | –
Ac-KPTTPPEE-Am: disubstitution variant at positions 3 and 4 (SEQ ID NO: 6) (Ac-KPTTPPEE-NH2) | markedly inhibited | significant reduction | markedly inhibited | significant reduction | significant reduction | –
Ac-Lys-Pro-Ser-Ser-Pro-Pro-Glu-Am (Ac-KPSSPPE-NH2) [Ac-KPSSPPE-Am] | no reduction | no significant effect | no reduction | fail to cause a significant change | fail to cause a significant change | –
Ac-Pro-Ser-Ser-Pro-Pro-Glu-Glu-Am (Ac-PSSPPEE-NH2) [Ac-PSSPPEE-Am] | no reduction | no significant effect | no reduction | fail to cause a significant change | fail to cause a significant change | –
Ac-RPSSPPEE-Am: substitution variant at position 1 (SEQ ID NO: 8) (Ac-RPSSPPEE-NH2) | markedly inhibited | significant reduction | markedly inhibited | significant reduction | significant reduction | –
KPSSPPEELK [Lys-Pro-Ser-Ser-Pro-Pro-Glu-Glu-Leu-Lys, reference compound] | – | – | – | – | – | inactive
